Experiment in all cases: NCI tumour cell line growth inhibition, 48 h
The test system of assay [1] is DLD-1 colon.
For assay [2], the system named is DMS 114 small cell lung.
For assay [3], the system named is M19-MEL melanoma.
Assay [4] concerns SNB-78 CNS.
Assay [5] relates to SN12K1 renal.
Assay [6] has as its system P388 leukemia.
The subject of assay [7] is DMS 273 small cell lung.
The subject of assay [8] is HOP-18 NSCLC.
Assay [9] has as its system P388/ADR leukemia.
The test system of assay [10] is MDA-N.
Assay [11] relates to XF 498 CNS.
In assay [12] the test system is RXF-631 renal.

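1) Cells in 96-well plates. 2) Compound, 48 h, 5 concentrations. 3) Linear interpolation between surrounding doses. 4) Unreached endpoint = highest concentration. TGI: total growth inhibition.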

With `CC(O)CCC(=O)c1ccoc1` (stereo not drawn), the TGI in assay [1] is > 10000 µM; in assay [2], > 9670 µM; in assay [3], > 10000 µM; in [4], 9990 µM; in assay [5], > 10000 µM; in assay [6] it was > 10000 µM. The TGI in assay [7] is > 9140 µM; in assay [8], > 10000 µM; in [9], > 10000 µM.
On to `CC(=O)c1cccc(NC(=O)C(=O)NNc2n[nH]c(=S)n2N)c1`, for which the TGI in assay [10] is 3.8 µM; in assay [11], 25.7 µM; in [1] it was 31.6 µM; in assay [2], 3.93 µM; in assay [3] it was 2.36 µM; in [4] it was 35 µM. Besides, the TGI in assay [7] came to 18.7 µM; in assay [8], 24.2 µM; in assay [12], 10.9 µM.

Source of the values: PubChem BioAssay (NCI).
